Test results from ChEMBL document CHEMBL1123151, “Carbocyclic analogues of 5'-amino-5'-deoxy- and 3'-amino-3'-deoxythymidines” (1986).

Experiments:
[1] = Ratio of the virus rating of the thymidine analogue to the virus rating of ara-A; Experiment 1; format: functional
L929 [2] = assay: Compound was tested for inhibition against replication of type 1 herpes simplex virus (HSV-1,strain 377) in L929 cells; Experiment 1; format: functional, Mus musculus
Vero [3] = assay: Compound was tested for inhibition against replication of type 1 herpes simplex virus (HSV-1,strain 377) in vero cells; Experiment 4; format: functional, Chlorocebus sabaeus
[4] = Ratio of the virus rating of the thymidine analogue to the virus rating of ara-A; Experiment 2; format: functional
L929 [5] = assay: Compound was tested for inhibition against replication of type 1 herpes simplex virus (HSV-1,strain 377) in L929 cells; Experiment 2; format: functional, Mus musculus
Vero [6] = assay: Compound was tested for inhibition against replication of type 1 herpes simplex virus (HSV-1,strain 377) in vero cells; Experiment 3; format: functional, Chlorocebus sabaeus
HEp-2 = assay: Compound was tested for inhibition against replication of type 1 herpes simplex virus (HSV-1,strain HF) in human epidermoid carcinoma cells; format: functional
L929 [7] = assay: Compound was tested for inhibition against replication of type 1 herpes simplex virus (HSV-2,strain MS) in L929 cells; format: functional, Mus musculus
Vero [8] = assay: Compound was tested for inhibition against replication of type 1 herpes simplex virus (HSV-1,strain 377) in vero cells; Experiment 2; format: functional, Chlorocebus sabaeus
[9] = Ratio of the virus rating of the thymidine analogue to the virus rating of ara-A in vero cells; Experiment 4; format: functional
[10] = Ratio of the virus rating of the thymidine analogue to the virus rating of ara-A in vero cells; Experiment 3; format: functional
[11] = Ratio of the virus rating of the thymidine analogue to the virus rating of ara-A in vero cells; Experiment 2; format: functional
L929 [12] = assay: Compound was tested for inhibition against replication of type 1 herpes simplex virus (HSV-1,strain 377) in L929 cells; format: functional, Mus musculus
Vero [13] = assay: Compound was tested for inhibition against replication of type 1 herpes simplex virus (HSV-1, strain 377) in vero cells; Experiment 5; format: functional, Chlorocebus sabaeus
Vero [14] = assay: Compound was tested for inhibition against replication of type 1 herpes simplex virus (HSV-1, strain 377) in vero cells; Experiment 2; format: functional, Chlorocebus sabaeus
[15] = Ratio of the virus rating of the thymidine analogue to the virus rating of ara-A; format: functional
L929 [16] = assay: Compound was tested for inhibition against replication of type 1 herpes simplex virus (HSV-1,strain 377) L929 cells; format: functional, Mus musculus
Vero [17] = assay: Compound was tested for inhibition against replication of type 1 herpes simplex virus (HSV-1,strain 377) in vero cells; format: functional, Chlorocebus sabaeus

SMILES: Cc1cn(C2CC(O)C(CN)C2)c(=O)[nH]c1=O (stereo not given)
- Ratio [1]: 1
- VR (L929 [2]): 3
- VR (Vero [3]): 0
- Ratio [4]: 1.28
- VR (L929 [5]): 1.8
- VR (Vero [6]): 0
- VR (HEp-2): 0.2
- VR (L929 [7]): 0.5

SMILES: Cc1cn([C@@H]2C[C@H](CO)[C@H](N=[N+]=[N-])C2)c(=O)[nH]c1=O
- VR (Vero [8]): 0.6
- Ratio [9]: 0.44
- Ratio [10]: 0.5
- VR (Vero [3]): 0.8
- VR (L929 [5]): 0
- VR (Vero [6]): 1
- Ratio [11]: 0.43
- VR (L929 [7]): 0
- VR (L929 [12]): 0.2

SMILES: Cc1cn([C@@H]2C[C@H](CO)[C@H](N)C2)c(=O)[nH]c1=O
- VR (Vero [13]): 0
- Ratio [4]: 0.9
- VR (L929 [5]): 0.9
- VR (Vero [14]): 0

SMILES: Cc1cn([C@@H]2C[C@H](CO)[C@@H](N)C2)c(=O)[nH]c1=O
- VR (Vero [8]): 0
- Ratio [15]: 0
- VR (Vero [3]): 0.4
- VR (L929 [16]): 0.4

SMILES: Cc1cn([C@@H]2C[C@H](CO)[C@@H](N=[N+]=[N-])C2)c(=O)[nH]c1=O
- VR (Vero [17]): 0

SMILES: Cc1cn(C2CC(O)C(CN=[N+]=[N-])C2)c(=O)[nH]c1=O (stereo not given)
- Ratio [15]: 0.27
- VR (HEp-2): 0
- VR (L929 [7]): 0
- VR (L929 [12]): 0.8
